In US8993574B2, “Pyrrole antifungal agents” (F2G Ltd, priority 2008, dated 2015):
Converted amounts (≈) assume the structure as drawn.

Experiments:
Type in all cases: cell-based
Aspergillus niger [1] = experiment: MIC, RPMI medium; settings: MIC banded into grades; for MIC: Aspergillus niger, read-out: MIC grade, A. niger
Summary of the method: (§1)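 Broth microdilution in RPMI with 2% glucose, 0.135 M MOPS pH 7.0; compounds as doubling dilutions, 50-0.05 mg/L, inoculum 1−2×10^4 cfu/mL. Incubated 24-48 h at 35° C; growth by OD 485 nm. MIC is lowest concentration giving >80% growth inhibition versus drug-free control.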

[2] = test system: Aspergillus fumigatus AF293; experiment: MIC, RPMI medium; settings: for MIC grade, A. fumigatus: MIC banded into grades; for MIC: Aspergillus fumigatus, AF293, MIC banded into grades, read-out: MIC grade, A. fumigatus
Summary of the method: as §1

Candida glabrata = experiment: MIC, RPMI medium; settings: 24-48 h at 35° C., >80% growth inhibition, banded into grades; for MIC: Nakaseomyces glabratus
Summary of the method: as §1

Aspergillus terreus AT4 [3] = experiment: MIC, RPMI medium; settings: for MIC grade, A. terreus: MIC banded into grades; for MIC: Aspergillus terreus, AT4, MIC banded into grades, read-out: MIC grade, A. terreus
Summary of the method: as §1

Candida tropicalis = experiment: MIC, RPMI medium; settings: 24-48 h at 35° C., >80% growth inhibition, banded into grades; for MIC: Candida tropicalis
Summary of the method: as §1

Candida parapsilosis = experiment: MIC, RPMI medium; settings: 24-48 h at 35° C., >80% growth inhibition, banded into grades; for MIC: Lodderomyces parapsilosis
Summary of the method: as §1

Candida albicans = experiment: MIC, RPMI medium; settings: 24-48 h at 35° C., >80% growth inhibition, banded into grades; for MIC: Candida albicans
Summary of the method: as §1

Candida krusei = experiment: MIC, RPMI medium; settings: 24-48 h at 35° C., >80% growth inhibition, banded into grades; for MIC: Pichia kudriavzevii
Summary of the method: as §1

Aspergillus flavus [4] = experiment: MIC, RPMI medium; settings: MIC banded into grades; for MIC: Aspergillus flavus, read-out: MIC grade, A. flavus
Summary of the method: as §1

[5] = test system: Aspergillus fumigatus AF210; experiment: MIC, RPMI medium; settings: for MIC grade, A. fumigatus 210: MIC banded into grades; for MIC: Aspergillus fumigatus, AF210, MIC banded into grades, read-out: MIC grade, A. fumigatus 210
Summary of the method: as §1

Aspergillus terreus AT49 [6] = experiment: MIC, RPMI medium; settings: for MIC grade, A. terreus 49: MIC banded into grades; for MIC: Aspergillus terreus, AT49, MIC banded into grades, read-out: MIC grade, A. terreus 49
Summary of the method: as §1

Aspergillus niger [7] = experiment: MIC, YAG medium; settings: 24 h at 35° C, MIC banded into grades; for MIC: Aspergillus niger, read-out: MIC grade, A. niger
Summary of the method: (§2)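 Growth inhibition was measured by absorbance at 485 nm following 24 h at 35° C. Spores harvested after 5 days on Sabouraud agar served as inoculum (1−2×10^4 cfu/mL, YAG medium). The lowest drug level producing >70% inhibition was taken as MIC.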

[8] = test system: Aspergillus fumigatus AF293; experiment: MIC, YAG medium; settings: 24 h at 35° C, MIC banded into grades; for MIC: Aspergillus fumigatus, read-out: MIC grade, A. fumigatus
Summary of the method: as §2

Aspergillus terreus AT4 [9] = experiment: MIC, YAG medium; settings: 24 h at 35° C, MIC banded into grades; for MIC: Aspergillus terreus, read-out: MIC grade, A. terreus
Summary of the method: as §2

Aspergillus flavus [10] = experiment: MIC, YAG medium; settings: 24 h at 35° C, MIC banded into grades; for MIC: Aspergillus flavus, 24 h, read-out: MIC grade, A. flavus
Summary of the method: as §2

[11] = test system: Aspergillus fumigatus AF210; experiment: MIC, YAG medium; settings: 24 h at 35° C, MIC banded into grades; for MIC: Aspergillus fumigatus, read-out: MIC grade, A. fumigatus 210
Summary of the method: as §2

Aspergillus terreus AT49 [12] = experiment: MIC, YAG medium; settings: 24 h at 35° C, MIC banded into grades; for MIC: Aspergillus terreus, read-out: MIC grade, A. terreus 49
Summary of the method: as §2

Compound	MIC grade, A. niger (Aspergillus niger [1])	MIC grade, A. fumigatus [2]	Candida MIC, C. glabrata (Candida glabrata)	MIC grade, A. terreus (Aspergillus terreus AT4 [3])	Candida MIC, C. tropicalis (Candida tropicalis)	Candida MIC, C. parapsilosis (Candida parapsilosis)	Candida MIC, C. albicans (Candida albicans)	Candida MIC, C. krusei (Candida krusei)	MIC grade, A. flavus (Aspergillus flavus [4])	MIC grade, A. fumigatus 210 [5]	MIC grade, A. terreus 49 (Aspergillus terreus AT49 [6])	MIC grade, A. niger (Aspergillus niger [7])	MIC grade, A. fumigatus [8]	MIC grade, A. terreus (Aspergillus terreus AT4 [9])	MIC grade, A. flavus (Aspergillus flavus [10])	MIC grade, A. fumigatus 210 [11]	MIC grade, A. terreus 49 (Aspergillus terreus AT49 [12])	MIC (Aspergillus niger [1]) [µg/mL]	MIC [2] [µg/mL]	MIC (Candida glabrata) [µg/mL]	further results
CCOC(=O)Cn1c(C)cc(-c2ccccc2)c1C(=O)C(=O)Nc1ccc(N2CCN(c3cc(C)cc(C)n3)CC2)cc1 [Example 69, (2-{4-[4-(4,6-Dimethyl-pyridin-2-yl)-piperazin-1-yl]-phenylaminooxalyl}-5-methyl-3-phenyl-pyrrol-1-yl)-acetic acid ethyl ester]	3 (A grade of 3 represents an MIC of less than 1 mg/L)	3 (A grade of 3 represents an MIC of less than 1 mg/L)	3 (A grade of 3 represents an MIC of less than 1 mg/L)	2 (A grade of 2 represents an MIC of from 1 to 10 mg/L)	3 (A grade of 3 represents an MIC of less than 1 mg/L)	3 (A grade of 3 represents an MIC of less than 1 mg/L)	2 (A grade of 2 represents an MIC of from 1 to 10 mg/L)	2 (A grade of 2 represents an MIC of from 1 to 10 mg/L)	1 (a grade of 1 represents an MIC of greater than 10 mg/L)	3 (A grade of 3 represents an MIC of less than 1 mg/L)	2 (A grade of 2 represents an MIC of from 1 to 10 mg/L)	3 (A grade of 3 represents an MIC of less than 1 mg/L)	3 (A grade of 3 represents an MIC of less than 1 mg/L)	3 (A grade of 3 represents an MIC of less than 1 mg/L)	2 (A grade of 2 represents an MIC of from 1 to 10 mg/L)	3 (A grade of 3 represents an MIC of less than 1 mg/L)	3 (A grade of 3 represents an MIC of less than 1 mg/L)				
COCCn1ccc(-c2cccc(Cl)c2)c1C(=O)C(=O)Nc1ccc(N2CCN(c3cc(C)cc(C)n3)CC2)cc1 [Example 70, 2-[3-(3-Chloro-phenyl)-1-(2-methoxy-ethyl)-1H-pyrrol-2-yl]-N-{4-[4-(4,6-dimethyl-pyridin-2-yl)-piperazin-1-yl]-phenyl}-2-oxo-acetamide]																		> 10	1 to 10 (≈ 1.75 to 17.5 µM)	< 1	MIC (Aspergillus terreus AT4 [3]): 1 to 10 µg/mL (≈ 1.75 to 17.5 µM); MIC (Candida tropicalis): 1 to 10 µg/mL (≈ 1.75 to 17.5 µM); MIC (Candida parapsilosis): < 1 µg/mL; MIC (Candida albicans): 1 to 10 µg/mL (≈ 1.75 to 17.5 µM); MIC (Candida krusei): 1 to 10 µg/mL (≈ 1.75 to 17.5 µM); MIC (Aspergillus flavus [4]): 1 to 10 µg/mL (≈ 1.75 to 17.5 µM); MIC [5]: 1 to 10 µg/mL (≈ 1.75 to 17.5 µM); MIC (Aspergillus terreus AT49 [6]): 1 to 10 µg/mL (≈ 1.75 to 17.5 µM); MIC (Aspergillus niger [7]): > 10 µg/mL; MIC [8]: < 1 µg/mL; MIC (Aspergillus terreus AT4 [9]): < 1 µg/mL; MIC (Aspergillus flavus [10]): 1 to 10 µg/mL (≈ 1.75 to 17.5 µM); MIC [11]: < 1 µg/mL; MIC (Aspergillus terreus AT49 [12]): < 1 µg/mL
COCCn1ccc(-c2ccsc2)c1C(=O)C(=O)Nc1ccc(N2CCN(c3cc(C)cc(C)n3)CC2)cc1 [Example 72, N-{4-[4-(4,6-Dimethyl-pyridin-2-yl)-piperazin-1-yl]-phenyl}-2-[1-(2-methoxy-ethyl)-3-thiophen-3-yl-1H-pyrrol-2-yl]-2-oxo-acetamide]																		1 to 10 (≈ 1.84 to 18.4 µM)	1 to 10 (≈ 1.84 to 18.4 µM)	< 1	MIC (Aspergillus terreus AT4 [3]): 1 to 10 µg/mL (≈ 1.84 to 18.4 µM); MIC (Candida tropicalis): < 1 µg/mL; MIC (Candida parapsilosis): < 1 µg/mL; MIC (Candida albicans): < 1 µg/mL; MIC (Candida krusei): 1 to 10 µg/mL (≈ 1.84 to 18.4 µM); MIC (Aspergillus flavus [4]): 1 to 10 µg/mL (≈ 1.84 to 18.4 µM); MIC [5]: 1 to 10 µg/mL (≈ 1.84 to 18.4 µM); MIC (Aspergillus terreus AT49 [6]): 1 to 10 µg/mL (≈ 1.84 to 18.4 µM); MIC (Aspergillus niger [7]): < 1 µg/mL; MIC [8]: < 1 µg/mL; MIC (Aspergillus terreus AT4 [9]): < 1 µg/mL; MIC (Aspergillus flavus [10]): 1 to 10 µg/mL (≈ 1.84 to 18.4 µM); MIC [11]: < 1 µg/mL; MIC (Aspergillus terreus AT49 [12]): < 1 µg/mL
CCOC(=O)Cn1ccc(-c2ccccc2)c1C(=O)C(=O)Nc1ccc(N2CCN(c3cc(C)cc(C)n3)CC2)cc1 [Example 73, (2-{4-[4-(4,6-Dimethyl-pyridin-2-yl)-piperazin-1-yl]-phenylaminooxalyl}-3-phenyl-pyrrol-1-yl)-acetic acid ethyl ester]	3 (A grade of 3 represents an MIC of less than 1 mg/L)	3 (A grade of 3 represents an MIC of less than 1 mg/L)	3 (A grade of 3 represents an MIC of less than 1 mg/L)	1 (a grade of 1 represents an MIC of greater than 10 mg/L)	3 (A grade of 3 represents an MIC of less than 1 mg/L)	2 (A grade of 2 represents an MIC of from 1 to 10 mg/L)	2 (A grade of 2 represents an MIC of from 1 to 10 mg/L)	2 (A grade of 2 represents an MIC of from 1 to 10 mg/L)	1 (a grade of 1 represents an MIC of greater than 10 mg/L)	3 (A grade of 3 represents an MIC of less than 1 mg/L)	1 (a grade of 1 represents an MIC of greater than 10 mg/L)	3 (A grade of 3 represents an MIC of less than 1 mg/L)	3 (A grade of 3 represents an MIC of less than 1 mg/L)	1 (a grade of 1 represents an MIC of greater than 10 mg/L)	1 (a grade of 1 represents an MIC of greater than 10 mg/L)	3 (A grade of 3 represents an MIC of less than 1 mg/L)	2 (A grade of 2 represents an MIC of from 1 to 10 mg/L)				
COC(=O)Cn1ccc(-c2ccccc2)c1C(=O)C(=O)Nc1ccc(N2CCN(c3cc(C)cc(C)n3)CC2)cc1 [Example 74, (2-{4-[4-(4,6-Dimethyl-pyridin-2-yl)-piperazin-1-yl]-phenylaminooxalyl}-3-phenylpyrrol-1-yl)-acetic acid methyl ester]	3 (A grade of 3 represents an MIC of less than 1 mg/L)	3 (A grade of 3 represents an MIC of less than 1 mg/L)	3 (A grade of 3 represents an MIC of less than 1 mg/L)	2 (A grade of 2 represents an MIC of from 1 to 10 mg/L)	3 (A grade of 3 represents an MIC of less than 1 mg/L)	3 (A grade of 3 represents an MIC of less than 1 mg/L)	2 (A grade of 2 represents an MIC of from 1 to 10 mg/L)	2 (A grade of 2 represents an MIC of from 1 to 10 mg/L)	1 (a grade of 1 represents an MIC of greater than 10 mg/L)	3 (A grade of 3 represents an MIC of less than 1 mg/L)	2 (A grade of 2 represents an MIC of from 1 to 10 mg/L)	3 (A grade of 3 represents an MIC of less than 1 mg/L)	3 (A grade of 3 represents an MIC of less than 1 mg/L)	2 (A grade of 2 represents an MIC of from 1 to 10 mg/L)	1 (a grade of 1 represents an MIC of greater than 10 mg/L)	3 (A grade of 3 represents an MIC of less than 1 mg/L)	2 (A grade of 2 represents an MIC of from 1 to 10 mg/L)				
CNC(=O)Cn1ccc(-c2ccccc2)c1C(=O)C(=O)Nc1ccc(N2CCN(c3cc(C)cc(C)n3)CC2)cc1 [Example 76, N-{4-[4-(4,6-Dimethyl-pyridin-2-yl)-piperazin-1-yl]-phenyl}-2-(1-methylcarbamoylmethyl-3-phenyl-1H-pyrrol-2-yl)-2-oxo-acetamide]																		> 10	> 10	< 1	MIC (Aspergillus terreus AT4 [3]): > 10 µg/mL; MIC (Candida tropicalis): < 1 µg/mL; MIC (Candida parapsilosis): < 1 µg/mL; MIC (Candida albicans): < 1 µg/mL; MIC (Candida krusei): < 1 µg/mL; MIC (Aspergillus flavus [4]): > 10 µg/mL; MIC [5]: 1 to 10 µg/mL (≈ 1.82 to 18.2 µM); MIC (Aspergillus terreus AT49 [6]): > 10 µg/mL; MIC (Aspergillus niger [7]): > 10 µg/mL; MIC [8]: 1 to 10 µg/mL (≈ 1.82 to 18.2 µM); MIC (Aspergillus terreus AT4 [9]): > 10 µg/mL; MIC (Aspergillus flavus [10]): > 10 µg/mL; MIC [11]: 1 to 10 µg/mL (≈ 1.82 to 18.2 µM); MIC (Aspergillus terreus AT49 [12]): > 10 µg/mL
